Measured values as given in patent US10632147B2, “Methods and compositions for treating inflammatory disorders” (priority 2007, dated 2020).

Assays:
[1] = tested on: Streptococcus pyogenes ATCC #19615; experiment: Microbial Time Kill Assay; format: cell-based; settings: 150 ppm AFC, 15 second contact time
[2] = Pilot study HOCl versus Sulfamylon as irrigant over excised and grafted burn
Salmonella choleraesuis = experiment: Carrier test; format: cell-based; settings: <180 ppm, glass slide carriers
[3] = tested on: Staphylococcus aureus ATCC #6538; experiment: Microbial Time Kill Assay; format: cell-based; settings: 150 ppm AFC, 15 second contact time
[4] = tested on: Bacillus cereus CIP 7 803; experiment: Sporicidal suspension test; format: cell-based
[5] = tested on: Micrococcus luteus ATCC #10240; experiment: Microbial Time Kill Assay; format: cell-based; settings: 150 ppm AFC, 15 second contact time
[6] = tested on: Staphylococcus aureus (MRSA) ATCC #33591; experiment: Microbial Time Kill Assay; format: cell-based; settings: 150 ppm AFC, 15 second contact time
[7] = tested on: Enterococcus faecium ATCC 10541; experiment: Bactericidal suspension test; format: cell-based
[8] = tested on: Salmonella typhimuium (strains TA1535, TA1537, TA98 and TA100); experiment: Bacterial mutagenicity; settings: 241-252 ppm AFC, absence and presence of liver S9 fraction
[9] = tested on: Pseudomonas aeruginosa ATCC #9027; experiment: Microbial Time Kill Assay; format: cell-based; settings: 150 ppm AFC, 15 second contact time
[10] = tested on: Bacillus subtilis var. niger CIP 7 718; experiment: Sporicidal suspension test; format: cell-based
Procedure: (§1) Sporicidal activity tests were performed using hypochlorous acid solution against Bacillus cereus CIP 7803, Bacillus subtilis CIP 7718, Clostridium sporogenes CIP 7939. Stock spore suspensions of Bacillus cereus CIP 7803, Bacillus subtilis CIP 7718, Clostridium sporogenes CIP 7939 were obtained from the Pasteur Institute's National Collection for the Culture of micro-organisms. Spore suspensions (1 ml) were added to 4 ml of sterile distilled water and 5 ml of hypochlorous acid solution at a range of concentrations at 20° C. After an exposure time of 60 minutes, 1 ml samples were neutralized using standard quench solution. All samples were serially diluted, plated out on selective agar, incubated aerobically or anaerobically at either 30° C. or 37° C. for 72 hours and colonies forming units counted.

[11] = tested on: Clostridium sporogenes CIP 7 939; experiment: Sporicidal suspension test; format: cell-based
Procedure: as §1

[12] = tested on: Enterococcus faecium ATCC #35667; experiment: Microbial Time Kill Assay; format: cell-based; settings: 150 ppm AFC, 15 second contact time
[13] = tested on: Serratia marcescens ATCC #14756; experiment: Microbial Time Kill Assay; format: cell-based; settings: 150 ppm AFC, 15 second contact time
[14] = tested on: Staphylococcus hominis ATCC #25615; experiment: Microbial Time Kill Assay; format: cell-based; settings: 150 ppm AFC, 15 second contact time
[15] = tested on: Enterococcus faecium (VRE); experiment: Carrier test; format: cell-based; settings: <180 ppm, glass slide carriers
[16] = tested on: Acinetobacter baumannii ATCC #19606; experiment: Microbial Time Kill Assay; format: cell-based; settings: 150 ppm AFC, 15 second contact time
[17] = tested on: Staphylococcus haemolyticus ATCC #29968; experiment: Microbial Time Kill Assay; format: cell-based; settings: 150 ppm AFC, 15 second contact time
[18] = tested on: Candida albicans ATCC 10231; experiment: Fungicidal suspension test; format: cell-based
Procedure: (§2) Fungicidal activity tests were performed using hypochlorous acid (140-150 ppm) against Candida albicans ATCC 10231 and Aspergillus niger ATCC 16404. Stock culture of Candida albicans ATCC 10231 and Aspergillus niger ATCC 16404 were grown and maintained on Malt Extract Agar at 30° C. […] All samples were serially diluted, plated out on Tryptic Soy Agar, incubated at 37° C. for 3 days and colonies forming units counted.

[19] = tested on: Aspergillus niger ATCC 16404; experiment: Fungicidal suspension test; format: cell-based
Procedure: as §2

[20] = tested on: Enterobacter aerogenes ATCC #51342; experiment: Microbial Time Kill Assay; format: cell-based; settings: 150 ppm AFC, 15 second contact time
Poliovirus Enterovirus 1 = format: cell-based
[21] = tested on: Staphylococcus aureus ATCC 6538; experiment: Bactericidal suspension test; format: cell-based
[22] = tested on: Staphylococcus epidermidis ATCC #14990; experiment: Microbial Time Kill Assay; format: cell-based; settings: 150 ppm AFC, 15 second contact time
[23] = tested on: Escherichia coli (strain CM891); experiment: Bacterial mutagenicity; settings: 241-252 ppm AFC, absence and presence of liver S9 fraction
[24] = tested on: Orthopoxvirus from vaccine; format: cell-based
[25] = hypochlorous acid 40-180 ppm, suspension test

Which results are given for `OCl` [hypochlorous acid]?
% Reduction (% Kill) [1]: >99.999%; HOCl Solution Log10 [1]: ≤1; HOCl Solution Survivors [1]: <10; Log Reduction [1]: ≥5.53; safety profile (adverse effects) [2]: absence of adverse effects; graft take and infection prevention compared with Sulfamylon ([2]; 150-180 ppm AFC): equivalency; pain reduction (visual analogue scale) compared with Sulfamylon group ([2]; 150-180 ppm AFC): better; Time to achieve pass (Salmonella choleraesuis): 2 min; % Reduction (% Kill) [3]: >99.995%; HOCl Solution Log10 [3]: ≤1; HOCl Solution Survivors [3]: <10; Log Reduction [3]: ≥4.96; contact time after which pass was achieved [4, 25]: 60 min; Test Result (Log reduction) ([4]; in 60 min., 20° C. ± 1° C.): >10^6 in 60 min.; % Reduction (% Kill) [5]: >99.999%; HOCl Solution Log10 [5]: ≤1; HOCl Solution Survivors [5]: <10; Log Reduction [5]: ≥5.04; % Reduction (% Kill) [6]: >99.999%; HOCl Solution Log10 [6]: ≤1; HOCl Solution Survivors [6]: <10; Log Reduction [6]: ≥5.20; contact time after which pass was achieved [7, 25]: 15 s; Test Result (Log reduction) ([7]; in 5 min., 20° C. ± 1° C.): >10^5 in 5 min.; mutagenic activity [8]: No evidence of mutagenic activity; % Reduction (% Kill) [9]: >99.999%; HOCl Solution Log10 [9]: ≤1; HOCl Solution Survivors [9]: <10; Log Reduction [9]: ≥5.11; contact time after which pass was achieved [10, 25]: 60 min; Test Result (Log reduction) ([10]; in 60 min., 20° C. ± 1° C.): >10^6 in 60 min.; contact time after which pass was achieved [11, 25]: 60 min; Test Result (Log reduction) ([11]; in 60 min., 20° C. ± 1° C.): >10^6 in 60 min.; % Reduction (% Kill) [12]: >99.999%; HOCl Solution Log10 [12]: ≤1; HOCl Solution Survivors [12]: <10; Log Reduction [12]: ≥5.08; % Reduction (% Kill) [13]: >99.999%; HOCl Solution Log10 [13]: ≤1; HOCl Solution Survivors [13]: <10; Log Reduction [13]: ≥5.08; % Reduction (% Kill) [14]: >99.999%; HOCl Solution Log10 [14]: ≤1; HOCl Solution Survivors [14]: <10; Log Reduction [14]: ≥5.68; Time to achieve pass [15]: 5 min; % Reduction (% Kill) [16]: >99.999%; HOCl Solution Log10 [16]: ≤1; HOCl Solution Survivors [16]: <10; Log Reduction [16]: ≥5.15; % Reduction (% Kill) [17]: >99.999%; HOCl Solution Log10 [17]: ≤1; HOCl Solution Survivors [17]: <10; Log Reduction [17]: ≥5.57; contact time after which pass was achieved [18, 25]: 15 s; Test Result (Log reduction) ([18]; in 5 min., 20° C. ± 1° C.): >10^4 in 5 min.; contact time after which pass was achieved [19, 25]: 15 s; Test Result (Log reduction) ([19]; in 5 min., 20° C. ± 1° C.): >10^4 in 5 min.; % Reduction (% Kill) [20]: >99.999%; HOCl Solution Log10 [20]: ≤1; HOCl Solution Survivors [20]: <10; Log Reduction [20]: ≥5.43; contact time after which pass was achieved (Poliovirus Enterovirus 1; [25]): 15 min; Test Result (Log reduction) (Poliovirus Enterovirus 1; in 15 min., 20° C. ± 1° C.): >10^4 in 15 min.; contact time after which pass was achieved [21, 25]: 15 s; Test Result (Log reduction) ([21]; in 5 min., 20° C. ± 1° C.): >10^5 in 5 min.; % Reduction (% Kill) [22]: >99.999%; HOCl Solution Log10 [22]: ≤1; HOCl Solution Survivors [22]: <10; mutagenic activity [23]: No evidence of mutagenic activity; contact time after which pass was achieved [24, 25]: 15 min; Test Result (Log reduction) ([24]; in 15 min., 20° C. ± 1° C.): >10^4 in 15 min.
